Test results taken from the kinase profiling compilation of Christmann-Franck et al. (2016).

Columns and labels:
Test in all cases: KINOMEscan competition binding
Details in all cases: compound 10.0 µM
AKT2 (human) = AKT2 (human) (UniProt P31751)
AKT3 (human) = AKT3 (human) (UniProt Q9Y243)
AURKC (human) = AURKC (human) (UniProt Q9UQB9)
BRSK1 (human) = BRSK1 (human) (UniProt Q8TDC3)
CAMK2A (human) = CAMK2A (human) (UniProt Q9UQM7)
CAMK2B (human) = CAMK2B (human) (UniProt Q13554)
CAMK2D (human) = CAMK2D (human) (UniProt Q13557)
CDC2L2 (human) = CDC2L2 (human) (UniProt Q9UQ88)
CDK8 (human) = CDK8 (human) (UniProt P49336)
CDK9 (human) = CDK9 (human) (UniProt P50750)
CLK1 (human) = CLK1 (human) (UniProt P49759)
CSNK1G2 (human) = CSNK1G2 (human) (UniProt P78368)
CSNK1G3 (human) = CSNK1G3 (human) (UniProt Q9Y6M4)
CSNK2A1 (human) = CSNK2A1 (human) (UniProt P68400)
CSNK2A2 (human) = CSNK2A2 (human) (UniProt P19784)
ERBB2 (human) = ERBB2 (human) (UniProt P04626)
FGR (human) = FGR (human) (UniProt P09769)
FLT4 (human) = FLT4 (human) (UniProt P35916)
LATS1 (human) = LATS1 (human) (UniProt O95835)
LIMK2 (human) = LIMK2 (human) (UniProt P53671)
MAP4K4 (human) = MAP4K4 (human) (UniProt O95819)
MAPK6 (human) = MAPK6 (human) (UniProt Q16659)
MELK (human) = MELK (human) (UniProt Q14680)
MKNK1 (human) = MKNK1 (human) (UniProt Q9BUB5)
MST4 (human) = MST4 (human) (UniProt Q9P289)
MYLK (human) = MYLK (human) (UniProt Q15746)
NLK (human) = NLK (human) (UniProt Q9UBE8)
NUAK2 (human) = NUAK2 (human) (UniProt Q9H093)
PAK1 (human) = PAK1 (human) (UniProt Q13153)
PRKAA1 (human) = PRKAA1 (human) (UniProt Q13131)
PRKCH (human) = PRKCH (human) (UniProt P24723)
PRKCQ (human) = PRKCQ (human) (UniProt Q04759)
PRKD1 (human) = PRKD1 (human) (UniProt Q15139)
RIOK1 (human) = RIOK1 (human) (UniProt Q9BRS2)
RIPK1 (human) = RIPK1 (human) (UniProt Q13546)
RPS6KA4 KD2 (human) = RPS6KA4 KD2 (human) (UniProt O75676)
SIK2 (human) = SIK2 (human) (UniProt Q9H0K1)
SRPK1 (human) = SRPK1 (human) (UniProt Q96SB4)
STK35 (human) = STK35 (human) (UniProt Q8TDR2)
TNIK (human) = TNIK (human) (UniProt Q9UKE5)
Sequence of TNIK (human) (Q9UKE5 whole entry, looked up): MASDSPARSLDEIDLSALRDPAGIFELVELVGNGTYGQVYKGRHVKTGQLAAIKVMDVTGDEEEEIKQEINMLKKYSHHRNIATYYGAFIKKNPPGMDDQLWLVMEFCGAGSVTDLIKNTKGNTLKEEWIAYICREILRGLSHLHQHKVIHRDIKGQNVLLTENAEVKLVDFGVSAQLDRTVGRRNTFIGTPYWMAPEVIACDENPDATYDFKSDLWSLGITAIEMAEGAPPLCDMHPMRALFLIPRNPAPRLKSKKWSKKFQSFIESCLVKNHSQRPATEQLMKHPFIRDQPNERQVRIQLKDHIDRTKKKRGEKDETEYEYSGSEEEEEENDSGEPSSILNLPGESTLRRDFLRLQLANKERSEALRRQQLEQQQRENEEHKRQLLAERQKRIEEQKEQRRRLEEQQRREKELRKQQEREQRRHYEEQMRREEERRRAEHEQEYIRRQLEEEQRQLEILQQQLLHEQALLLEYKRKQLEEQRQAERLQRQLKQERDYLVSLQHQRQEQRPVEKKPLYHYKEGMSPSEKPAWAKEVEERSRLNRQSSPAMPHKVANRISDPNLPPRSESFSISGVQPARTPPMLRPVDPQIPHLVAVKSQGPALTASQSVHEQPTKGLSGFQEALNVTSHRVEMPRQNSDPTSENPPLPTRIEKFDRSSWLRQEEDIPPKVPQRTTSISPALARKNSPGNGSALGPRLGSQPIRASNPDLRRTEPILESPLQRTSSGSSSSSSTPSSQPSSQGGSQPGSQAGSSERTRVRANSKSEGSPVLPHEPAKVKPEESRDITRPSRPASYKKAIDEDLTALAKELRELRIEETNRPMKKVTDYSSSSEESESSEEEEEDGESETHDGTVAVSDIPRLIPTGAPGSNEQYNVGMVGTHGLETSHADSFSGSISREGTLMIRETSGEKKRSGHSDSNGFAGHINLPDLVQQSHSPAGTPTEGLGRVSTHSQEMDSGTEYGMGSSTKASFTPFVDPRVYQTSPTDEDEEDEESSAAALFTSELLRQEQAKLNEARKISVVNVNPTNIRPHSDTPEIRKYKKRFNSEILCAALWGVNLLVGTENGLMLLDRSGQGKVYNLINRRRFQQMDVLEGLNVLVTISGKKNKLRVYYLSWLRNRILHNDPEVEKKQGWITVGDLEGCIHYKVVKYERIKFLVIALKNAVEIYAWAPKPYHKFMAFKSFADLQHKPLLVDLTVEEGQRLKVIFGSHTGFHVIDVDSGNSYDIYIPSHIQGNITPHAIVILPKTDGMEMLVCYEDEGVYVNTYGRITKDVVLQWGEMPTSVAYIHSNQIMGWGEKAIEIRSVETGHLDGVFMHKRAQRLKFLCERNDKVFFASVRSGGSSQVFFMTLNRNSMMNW

Sequence of PAK1 (human) (Q13153 whole entry, looked up): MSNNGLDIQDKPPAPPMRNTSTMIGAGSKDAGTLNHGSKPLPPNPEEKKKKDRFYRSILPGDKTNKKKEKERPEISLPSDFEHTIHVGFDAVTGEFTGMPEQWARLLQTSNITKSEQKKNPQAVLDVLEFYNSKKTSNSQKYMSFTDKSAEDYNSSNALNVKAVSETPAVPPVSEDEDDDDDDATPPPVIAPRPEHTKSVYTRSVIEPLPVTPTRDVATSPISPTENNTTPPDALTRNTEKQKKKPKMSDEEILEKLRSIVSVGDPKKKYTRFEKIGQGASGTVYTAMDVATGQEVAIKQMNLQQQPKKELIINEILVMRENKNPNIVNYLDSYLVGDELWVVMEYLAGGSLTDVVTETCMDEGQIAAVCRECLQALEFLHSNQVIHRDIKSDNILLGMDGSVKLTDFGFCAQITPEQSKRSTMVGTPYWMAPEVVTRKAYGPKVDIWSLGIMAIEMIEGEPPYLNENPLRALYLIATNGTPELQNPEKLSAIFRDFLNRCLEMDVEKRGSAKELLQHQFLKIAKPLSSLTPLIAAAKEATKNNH
Sequence of CSNK2A1 (human) (P68400 whole entry, looked up): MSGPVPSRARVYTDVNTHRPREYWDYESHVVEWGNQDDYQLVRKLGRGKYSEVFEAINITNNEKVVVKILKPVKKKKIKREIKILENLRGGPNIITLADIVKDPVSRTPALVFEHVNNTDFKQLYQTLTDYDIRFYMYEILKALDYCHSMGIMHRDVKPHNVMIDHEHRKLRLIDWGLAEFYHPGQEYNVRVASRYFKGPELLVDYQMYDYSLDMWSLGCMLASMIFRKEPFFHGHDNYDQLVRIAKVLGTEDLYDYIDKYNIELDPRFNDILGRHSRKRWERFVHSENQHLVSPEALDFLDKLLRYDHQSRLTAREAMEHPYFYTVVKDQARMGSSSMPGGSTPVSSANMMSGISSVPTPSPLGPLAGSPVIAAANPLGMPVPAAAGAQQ
Sequence of FLT4 (human) (P35916 whole entry, looked up): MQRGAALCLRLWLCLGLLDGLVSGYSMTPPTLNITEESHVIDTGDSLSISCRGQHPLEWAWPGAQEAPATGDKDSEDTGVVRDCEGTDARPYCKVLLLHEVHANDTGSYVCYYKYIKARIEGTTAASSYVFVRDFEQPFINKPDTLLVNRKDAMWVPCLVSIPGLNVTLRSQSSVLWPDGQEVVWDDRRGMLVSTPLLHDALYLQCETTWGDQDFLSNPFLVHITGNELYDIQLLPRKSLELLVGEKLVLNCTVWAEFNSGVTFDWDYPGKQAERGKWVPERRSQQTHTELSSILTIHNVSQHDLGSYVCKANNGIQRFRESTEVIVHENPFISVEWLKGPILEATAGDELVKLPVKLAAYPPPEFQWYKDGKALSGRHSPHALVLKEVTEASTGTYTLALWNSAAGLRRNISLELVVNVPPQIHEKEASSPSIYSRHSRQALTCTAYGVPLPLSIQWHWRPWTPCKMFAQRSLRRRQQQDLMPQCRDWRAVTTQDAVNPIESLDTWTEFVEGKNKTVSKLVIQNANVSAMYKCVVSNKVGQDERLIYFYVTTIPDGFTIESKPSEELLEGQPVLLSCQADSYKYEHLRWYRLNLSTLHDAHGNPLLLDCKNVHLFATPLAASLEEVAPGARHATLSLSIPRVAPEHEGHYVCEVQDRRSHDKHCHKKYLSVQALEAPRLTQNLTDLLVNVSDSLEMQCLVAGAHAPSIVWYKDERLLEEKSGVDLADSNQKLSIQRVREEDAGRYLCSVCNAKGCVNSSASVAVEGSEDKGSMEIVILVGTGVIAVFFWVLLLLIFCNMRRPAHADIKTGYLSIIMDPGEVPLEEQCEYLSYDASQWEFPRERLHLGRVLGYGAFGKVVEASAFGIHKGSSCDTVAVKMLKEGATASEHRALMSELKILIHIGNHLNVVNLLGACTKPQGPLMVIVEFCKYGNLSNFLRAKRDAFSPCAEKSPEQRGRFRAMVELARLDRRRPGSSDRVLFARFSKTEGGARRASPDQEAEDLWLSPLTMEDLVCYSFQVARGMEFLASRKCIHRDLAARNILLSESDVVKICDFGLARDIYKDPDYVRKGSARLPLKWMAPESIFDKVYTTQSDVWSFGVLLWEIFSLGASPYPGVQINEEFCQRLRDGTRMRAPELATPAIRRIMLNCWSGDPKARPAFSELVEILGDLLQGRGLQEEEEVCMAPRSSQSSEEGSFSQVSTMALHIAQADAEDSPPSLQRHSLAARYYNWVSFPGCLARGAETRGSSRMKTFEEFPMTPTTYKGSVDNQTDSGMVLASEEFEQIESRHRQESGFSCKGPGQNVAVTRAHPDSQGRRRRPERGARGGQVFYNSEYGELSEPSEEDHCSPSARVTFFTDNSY
Sequence of PRKAA1 (human) (Q13131 whole entry, looked up): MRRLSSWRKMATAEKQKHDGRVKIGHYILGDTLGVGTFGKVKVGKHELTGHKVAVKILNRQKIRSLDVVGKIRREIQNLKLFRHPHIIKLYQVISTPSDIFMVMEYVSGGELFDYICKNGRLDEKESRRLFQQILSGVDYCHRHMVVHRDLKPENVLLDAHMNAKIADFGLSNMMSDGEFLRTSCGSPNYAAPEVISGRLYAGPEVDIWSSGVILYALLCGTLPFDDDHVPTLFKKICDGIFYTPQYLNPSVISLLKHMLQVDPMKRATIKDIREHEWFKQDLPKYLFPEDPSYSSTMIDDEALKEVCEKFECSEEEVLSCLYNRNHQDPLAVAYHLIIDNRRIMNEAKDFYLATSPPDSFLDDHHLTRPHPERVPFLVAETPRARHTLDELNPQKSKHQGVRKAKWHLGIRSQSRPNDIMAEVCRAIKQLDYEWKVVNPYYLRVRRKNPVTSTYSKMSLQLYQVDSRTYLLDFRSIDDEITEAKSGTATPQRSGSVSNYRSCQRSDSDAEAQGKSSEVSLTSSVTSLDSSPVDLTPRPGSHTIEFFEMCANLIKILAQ
Sequence of CDC2L2 (human) (Q9UQ88 whole entry, looked up): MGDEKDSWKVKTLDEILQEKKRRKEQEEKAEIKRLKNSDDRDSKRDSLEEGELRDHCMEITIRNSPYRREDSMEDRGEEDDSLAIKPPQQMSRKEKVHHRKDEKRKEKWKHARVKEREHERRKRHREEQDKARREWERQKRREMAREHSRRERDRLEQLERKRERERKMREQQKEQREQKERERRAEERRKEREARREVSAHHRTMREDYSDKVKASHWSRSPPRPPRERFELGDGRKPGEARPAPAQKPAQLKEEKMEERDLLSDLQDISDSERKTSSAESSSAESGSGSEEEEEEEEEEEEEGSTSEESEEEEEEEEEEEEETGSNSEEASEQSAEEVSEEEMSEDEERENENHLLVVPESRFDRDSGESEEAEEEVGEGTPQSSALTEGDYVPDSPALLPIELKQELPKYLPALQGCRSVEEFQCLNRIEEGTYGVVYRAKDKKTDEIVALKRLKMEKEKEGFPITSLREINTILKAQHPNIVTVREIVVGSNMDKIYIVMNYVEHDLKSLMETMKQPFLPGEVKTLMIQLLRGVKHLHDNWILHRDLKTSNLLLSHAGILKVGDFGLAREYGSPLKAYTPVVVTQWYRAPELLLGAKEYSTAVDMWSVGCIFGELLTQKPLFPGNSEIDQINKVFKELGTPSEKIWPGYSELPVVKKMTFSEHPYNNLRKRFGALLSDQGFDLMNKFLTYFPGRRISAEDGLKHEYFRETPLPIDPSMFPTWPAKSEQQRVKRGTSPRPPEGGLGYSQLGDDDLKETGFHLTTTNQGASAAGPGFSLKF

Row | Structure (SMILES) | kinase still bound, per cent of control (AKT2 (human)) | kinase still bound, per cent of control (AKT3 (human)) | kinase still bound, per cent of control (AURKC (human)) | kinase still bound, per cent of control (BRSK1 (human)) | kinase still bound, per cent of control (CAMK2A (human)) | kinase still bound, per cent of control (CAMK2B (human)) | kinase still bound, per cent of control (CAMK2D (human)) | kinase still bound, per cent of control (CDC2L2 (human)) | kinase still bound, per cent of control (CDK8 (human)) | kinase still bound, per cent of control (CDK9 (human)) | kinase still bound, per cent of control (CLK1 (human)) | kinase still bound, per cent of control (CSNK1G2 (human)) | kinase still bound, per cent of control (CSNK1G3 (human)) | kinase still bound, per cent of control (CSNK2A1 (human)) | kinase still bound, per cent of control (CSNK2A2 (human)) | kinase still bound, per cent of control (ERBB2 (human)) | kinase still bound, per cent of control (FGR (human)) | kinase still bound, per cent of control (FLT4 (human)) | kinase still bound, per cent of control (LATS1 (human)) | kinase still bound, per cent of control (LIMK2 (human)) | other results
1 | Cc1ccc(NC(=O)c2cccc(C(C)(C)C#N)c2)cc1Nc1ccc2ncn(C)c(=O)c2c1 | 100% | 100% | 100% | 91% | 100% | 100% | 100% | 5.4% | 22% | 100% | 100% | 100% | 100% | 88% | 100% | 72% | 12% | 0.15% | 100% | 95% | kinase still bound, per cent of control (MAP4K4 (human)): 10%; kinase still bound, per cent of control (MAPK6 (human)): 100%; kinase still bound, per cent of control (MELK (human)): 100%; kinase still bound, per cent of control (MKNK1 (human)): 100%; kinase still bound, per cent of control (MST4 (human)): 100%; kinase still bound, per cent of control (MYLK (human)): 98%; kinase still bound, per cent of control (NLK (human)): 48%; kinase still bound, per cent of control (NUAK2 (human)): 100%; kinase still bound, per cent of control (PAK1 (human)): 100%; kinase still bound, per cent of control (PRKAA1 (human)): 73%; kinase still bound, per cent of control (PRKCH (human)): 100%; kinase still bound, per cent of control (PRKCQ (human)): 98%; kinase still bound, per cent of control (PRKD1 (human)): 67%; kinase still bound, per cent of control (RIOK1 (human)): 100%; kinase still bound, per cent of control (RIPK1 (human)): 83%; kinase still bound, per cent of control (RPS6KA4 KD2 (human)): 94%; kinase still bound, per cent of control (SIK2 (human)): 77%; kinase still bound, per cent of control (SRPK1 (human)): 100%; kinase still bound, per cent of control (STK35 (human)): 75%; kinase still bound, per cent of control (TNIK (human)): 3.4%
2 | COc1cc(C(=O)NC2CCN(C)CC2)ccc1Nc1ncc2c(n1)N(C1CCCC1)C(C)CC(=O)N2C (stereo not given) | 100% | 100% | 100% | 100% | 21% | 100% | 100% | 100% | 100% | 100% | 18% | 100% | 100% | 100% | 100% | 100% | 100% | 100% | 100% | 100% | kinase still bound, per cent of control (MAP4K4 (human)): 100%; kinase still bound, per cent of control (MAPK6 (human)): 100%; kinase still bound, per cent of control (MELK (human)): 100%; kinase still bound, per cent of control (MKNK1 (human)): 100%; kinase still bound, per cent of control (MST4 (human)): 100%; kinase still bound, per cent of control (MYLK (human)): 2.8%; kinase still bound, per cent of control (NLK (human)): 100%; kinase still bound, per cent of control (NUAK2 (human)): 100%; kinase still bound, per cent of control (PAK1 (human)): 100%; kinase still bound, per cent of control (PRKAA1 (human)): 100%; kinase still bound, per cent of control (PRKCH (human)): 100%; kinase still bound, per cent of control (PRKCQ (human)): 100%; kinase still bound, per cent of control (PRKD1 (human)): 100%; kinase still bound, per cent of control (RIOK1 (human)): 100%; kinase still bound, per cent of control (RIPK1 (human)): 100%; kinase still bound, per cent of control (RPS6KA4 KD2 (human)): 100%; kinase still bound, per cent of control (SIK2 (human)): 100%; kinase still bound, per cent of control (SRPK1 (human)): 100%; kinase still bound, per cent of control (STK35 (human)): 100%; kinase still bound, per cent of control (TNIK (human)): 100%
